Measured values published in patent US10227345B2, “Compounds and methods for inhibiting fascin” (Cornell University, priority 2014, dated 2019).

Biological target: T1, human fascin 1 (Homo sapiens, UniProt Q16658)
T1 construct: GST (N, cleaved yes); made in house; host or cells: Escherichia coli BL21/DE3 (pGEX4T-fascin 1 plasmid)
Assay: Fascin inhibition (actin bundling) assay, image-based
Assay type: biochemical
Settings: in the presence of 50 μm of the compound relative to bundle activity when the compound was not present; read-out: Inhibition (percentage reduction of bundle activity)
Summary of the method: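 GST-tagged human fascin 1 from E. coli, thrombin-cleaved, was preincubated with compounds for 30 min, then polymerized actin was added; compounds were at 30 μM final. Bundles captured on poly-D-lysine plates were imaged, and background-corrected bundle length per well was computed, with DMSO-only wells as negative controls.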

| Compound | inhibition at 50 µM |
| --- | --- |
| O=C(Nc1nn(Cc2ccc(C(F)(F)F)cc2)c2ccccc12)c1cscn1 [Compound 30, N-(1-(4-(trifluoromethyl)benzyl)-1H-indazol-3-yl)thiazole-4-carboxamide] | < 10% |
| O=C(Nc1nn(Cc2ccc(C(F)(F)F)cc2)c2ccccc12)c1cnccn1 [Compound 53, N-(1-(4-(trifluoromethyl)benzyl)-1H-indazol-3-yl)pyrazine-2-carboxamide] | < 10% |
| Cc1ccoc1C(=O)Nc1nn(Cc2ccc(C(F)(F)F)cc2)c2ccccc12 [Compound 29, 3-methyl-N-(1-(4-(trifluoromethyl)benzyl)-1H-indazol-3-yl)furan-2-carboxamide] | < 10% |
| Nc1nn(Cc2ccc(C(F)(F)F)cc2)c2c(C(F)(F)F)cccc12 [Compound 111, 7-(trifluoromethyl)-1-(4-(trifluoromethyl)benzyl)-1H-indazol-3-amine] | < 10% |
| O=C(Nc1nn(Cc2ccc(C(F)(F)F)cc2)c2ccccc12)c1ccc(Cl)cc1 [Compound 6, 4-chloro-N-(1-(4-(trifluoromethyl)benzyl)-1H-indazol-3-yl)benzamide] | 10% |
| CC(=O)Nc1nn(Cc2ccc(C(F)(F)F)cc2)c2cncc(Cl)c12 [Compound 150, N-(1-(4-(trifluoromethyl)benzyl)-4-chloro-1H-pyrazolo(3,4-c)pyridyl)-3-acetamide] | 10% |
| O=C(Nc1nn(Cc2ccc(C(F)(F)F)cc2)c2ccccc12)c1sccc1F [Compound 37, 3-fluoro-N-(1-(4-(trifluoromethyl)benzyl)-1H-indazol-3-yl)thiophene-2-carboxamide] | < 10% |
| Cc1occc1C(=O)Nc1nn(Cc2ccc(C(F)(F)F)cc2)c2ccc(C(F)(F)F)cc12 [Compound 125, 2-methyl-N-(5-(trifluoromethyl)-1-(4-(trifluoromethyl)benzyl)-1H-indazol-3-yl)furan-3-carboxamide] | < 10% |
| Cc1ncsc1C(=O)Nc1nn(Cc2ccc(C(F)(F)F)cc2)c2cccc(Cl)c12 [Compound 120, N-(4-chloro-1-(4-(trifluoromethyl)benzyl)-1H-indazol-3-yl)-4-methylthiazole-5-carboxamide] | < 10% |
| O=C(Nc1nn(Cc2cccc(C(F)(F)F)c2)c2ccccc12)c1ccoc1 [Compound 48, N-(1-(3-(trifluoromethyl)benzyl)-1H-indazol-3-yl)furan-3-carboxamide] | < 10% |
| Cc1ccccc1C(=O)Nc1nn(Cc2ccc(C(F)(F)F)cc2)c2ccccc12 [Compound 15, 2-methyl-N-(1-(4-(trifluoromethyl)benzyl)-1H-indazol-3-yl)benzamide] | < 10% |
| Cc1occc1C(=O)Nc1nn(Cc2ccc(C(F)(F)F)nc2)c2ccc(C#N)cc12 [Compound 100, N-(5-cyano-1-((6-(trifluoromethyl)pyridin-3 - yl)methyl)-1H-indazol-3-yl)-2-methylfuran-3-carboxamide] | < 10% |
| O=C(Nc1nn(Cc2ccc(C(F)(F)F)cc2)c2ccccc12)c1sccc1Cl [Compound 41, 3-chloro-N-(1-(4-(trifluoromethyl)benzyl)-1H-indazol-3-yl)thiophene-2-carboxamide] | < 10% |
| Cc1ccc(Cn2nc(NC(=O)c3cccnn3)c3ccccc32)cc1 [Compound 83, N-(1-(4-methylbenzyl)-1H-indazol-3-yl)pyridazine-3-carboxamide] | < 10% |
| Cc1nocc1C(=O)Nc1nn(Cc2ccc(C(F)(F)F)cc2)c2ccc(C(F)(F)F)cc12 [Compound 124, 3-methyl-N-(5-(trifluoromethyl)-1-(4-(trifluoromethyl)benzyl)-1H-indazol-3-yl)isoxazole-4-carboxamide] | < 10% |
| O=C(Nc1nn(Cc2ccc(C(F)(F)F)cc2)c2c(C(F)(F)F)cccc12)c1ccoc1 [Compound 112, N-(7-(trifluoromethyl)-1-(4-(trifluoromethyl)benzyl)-1H-indazol-3-yl)furan-3-carboxamide] | < 10% |

| Compound | inhibition at 50 µM |
| --- | --- |
| O=C(Nc1nn(Cc2ccc(C(F)(F)F)cc2)c2ccccc12)c1cnco1 [Compound 40, N-(1-(4-(trifluoromethyl)benzyl)-1H-indazol-3-yl)oxazole-5-carboxamide] | 100% |
| Cc1occc1-c1nn(Cc2ccc(C(F)(F)F)cc2)c2ccccc12 [Compound 148, 3-(2-methylfuran-3-yl)-1-(4-(trifluoromethyl)benzyl)-1H-indazole] | 10% |
| Cc1ccc2c(N)nn(Cc3ccc(C(F)(F)F)cc3)c2n1 [Compound 131, 6-methyl-1-(4-(trifluoromethyl)benzyl)-1H-pyrazolo[3,4-b]pyridin-3-amine] | < 10% |
| O=C(Nc1nn(Cc2ccc(C(F)(F)F)cc2)c2ccccc12)c1cccc(Cl)n1 [Compound 8, 6-chloro-N-(1-(4-(trifluoromethyl)benzyl)-1H-indazol-3-yl)picolinamide] | < 10% |
| Cc1ccc(C(=O)Nc2nn(Cc3ccc(C(F)(F)F)cc3)c3ccccc23)cc1 [Compound 16] | < 10% |
| Cc1ocnc1C(=O)Nc1nn(Cc2ccc(C(F)(F)F)cc2)c2ccccc12 [Compound 31, 5-methyl-N-(1-(4-(trifluoromethyl)benzyl)-1H-indazol-3-yl)oxazole-4-carboxamide] | 60% |
| Nc1nn(Cc2ccc(C(F)(F)F)cc2)c2cc(C(F)(F)F)ccc12 [Compound 106, 6-(trifluoromethyl)-1-(4-(trifluoromethyl)benzyl)-1H-indazol-3-amine] | < 10% |
| O=C(Nc1nn(Cc2ccc(F)cc2)c2ccccc12)c1ccoc1 [Compound 71, N-(1-(4-fluorobenzyl)-1H-indazol-3-yl)furan-3-carboxamide] | < 10% |
| O=C(Nc1nn(Cc2ccccc2)c2ccccc12)c1ccoc1 [Compound 58, N-(1-benzyl-1H-indazol-3-yl)furan-3-carboxamide] | < 10% |
| O=C(Nc1nn(Cc2ccc(C(F)(F)F)cc2)c2ccccc12)c1ccsc1Cl [Compound 38, 2-chloro-N-(1-(4-(trifluoromethyl)benzyl)-1H-indazol-3-yl)thiophene-3-carboxamide] | < 10% |
| O=C(Nc1nn(Cc2ccc(C(F)(F)F)cc2)c2ccccc12)c1cc(Cl)ccn1 [Compound 18] | < 10% |
| CC(C)C(=O)Nc1nn(Cc2ccc(C(F)(F)F)cc2)c2cncc(Cl)c12 [Compound 152, N-(4-chloro-1-(4-(trifluoromethyl)benzyl)-1H-pyrazolo[3,4-c]pyridin-3-yl)isobutyramide] | 100% |
| FC(F)(F)c1ccc(Cn2nc(-c3ccoc3)c3ccccc32)cc1 [Compound 147, 3-(furan-3-yl)-1-(4-(trifluoromethyl)benzyl)-1H-indazole] | 10% |
| COc1cscc1C(=O)Nc1nn(Cc2ccc(C(F)(F)F)cc2)c2ccccc12 [Compound 51, 4-methoxy-N-(1-(4-(trifluoromethyl)benzyl)-1H-indazol-3-yl)thiophene-3-carboxamide] | < 10% |
| O=C(Nc1nn(Cc2ccc(C(F)(F)F)cc2)c2ccccc12)c1ccccc1Cl [Compound 5, 2-chloro-N-(1-(4-(trifluoromethyl)benzyl)-1H-indazol-3-yl)benzamide] | 50% |
